Results taken from patent publication US10202604B2, “Methods of using microRNA-141” (Stemirna Therapeutics Co., Ltd., priority 2016, dated 2019).

How the values were obtained:
CD44+ Du145 cells = assay: Clonal and sphere formation assays; type: cell-based, human; conditions: miR-141 vs NC oligos, 30 nM, 48 h transfection
Method: (§1) Average % of CD44^+ cells (as determined by flow analysis; n=3-5) is indicated for each cell type (UD, undetectable). […] Purified CD44^+ Du145 cells were transfected with NC or miR-141 oligos (30 nM, 48 h) and then plated for clonal (1D & 1E) and sphere (1F) assays. Bars represent mean±SD. *, P<0.05; **, P<0.01. […] Shown are tumor images, cell numbers injected (100,000 cells per injection for all models), site of injection (s.c, subcutaneously) and days (d) when tumors were harvested. Tumor weight and incidences with corresponding P values are also indicated. ns, not significant. […] For 1st generation (1°) sphere assays, 1,000 cells per well were plated in triplicate for each group in 12-well plate and results scored in 11 days. For 2nd generation (2°), the 1° spheres were harvested, digested with Collagenase and Trypsin into single cells, 1,000 cells/well were plated, and results scored in 10 days. Quantification of the colonies was plotted (1 L; **P<0.01). […]
(§2) For clonal assays, cultured prostate cancer cells or human prostate cancer cells freshly purified from patient primary tumors were plated at a clonal density (i.e., 100 cells/well) in a 6-well plate. The number of holoclones (33) was counted several days later. […] Floating spheres that arose in 1-2 weeks were counted. […]

[1] = test system: CD44+ and bulk human prostate cancer (HPCa) cells freshly purified from patient tumors; assay: Clonal and sphere formation assays, primary patient cells; type: cell-based
Method: as §1, §2

miR-141: miR-141 mirVana mimics (Life Technologies); microRNA-141 oligonucleotide may have SEQ ID NO: 1; in some experiments over-expressed by lentiviral vectors (UAACACUGUCUGGUAAAGAUGG; listed as RNA, further chemistry not given here) [miR-141 mirVana mimics (Life Technologies); in some experiments over-expressed by lentiviral vectors]
inhibited: clonogenic capacity (CD44+ Du145 cells) | sphere-forming capacity (CD44+ Du145 cells) | clonal growth ([1]; miR-141 overexpression (Lenti-141 MOI 10, 72 h)) | serial sphere formation ([1]; miR-141 overexpression, CD44+ and bulk HPCa cells, 1st and 2nd generation spheres in Matrigel)
